Data reported in PubChem BioAssay AID248 (DTP/NCI, 2004).
Several values for one entry are separate records, joined by “and”; a condition that tells them apart may be missing. Equal entries are not always repeated. Inconclusive results and toxic doses are left out. Rule as the data show it: active = T/C of 150% or more; inactive = T/C below 125%. Peptide text beside a SMILES is read from it. * marks the point of attachment. Cbz = O=C(OCc1ccccc1)*; NHNH2 = NN*

Test system: L1210 leukemia ip in BDF1 mice, survival T/C
Experiment: NCI In Vivo Anticancer Drug Screen. Data for tumor model L1210 Leukemia (intraperitoneal) in B6D2F1 (BDF1) mice
Details: endpoint: mean survival time, higher = longer survival
How it was run: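 Tumor was transplanted into mice, which were then dosed with test compound or vehicle alone. Survival was recorded for each group, and the treated figure was expressed relative to the control figure.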

[1] = dose: 100.0 mg/kg/injection, schedule: Q01DX009 (ip), vehicle: Klucel (hydroxypropylcellulose) (HPC)
[2] = dose: 100.0 mg/kg/injection, schedule: Q04DX003 (ip), vehicle: Klucel (hydroxypropylcellulose) (HPC)
[3] = dose: 200.0 mg/kg/injection, schedule: Q01DX009 (ip), vehicle: Klucel (hydroxypropylcellulose) (HPC)
[4] = dose: 200.0 mg/kg/injection, schedule: Q04DX003 (ip), vehicle: Klucel (hydroxypropylcellulose) (HPC)
[5] = dose: 400.0 mg/kg/injection, schedule: Q01DX009 (ip), vehicle: Klucel (hydroxypropylcellulose) (HPC)
[6] = dose: 400.0 mg/kg/injection, schedule: Q04DX003 (ip), vehicle: Klucel (hydroxypropylcellulose) (HPC)
[7] = dose: 100.0 mg/kg/injection, schedule: Q01DX001 (ip), vehicle: saline
[8] = dose: 200.0 mg/kg/injection, schedule: Q01DX001 (ip), vehicle: saline
[9] = dose: 100.0 mg/kg/injection, schedule: Q04DX003 (ip), vehicle: saline with Tween-80

Measured: T/C

CCCCCCCCCCCCCC[n+]1ccccc1
inactive: dose: 0.25 mg/kg/injection, schedule: Q04DX003 (ip), vehicle: saline 96 % of control | dose: 0.5 mg/kg/injection, schedule: Q01DX001 (ip), vehicle: saline 97 % of control | dose: 0.5 mg/kg/injection, schedule: Q04DX003 (ip), vehicle: saline 94 % of control | dose: 1.0 mg/kg/injection, schedule: Q01DX001 (ip), vehicle: saline 105 % of control | dose: 1.0 mg/kg/injection, schedule: Q04DX003 (ip), vehicle: saline 96 % of control | dose: 2.0 mg/kg/injection, schedule: Q01DX001 (ip), vehicle: saline 112 % of control | dose: 2.0 mg/kg/injection, schedule: Q04DX003 (ip), vehicle: saline 96 % of control | dose: 4.0 mg/kg/injection, schedule: Q04DX003 (ip), vehicle: saline 109 % of control | dose: 62.5 micrograms/kg/injection, schedule: Q01DX009 (ip), vehicle: saline 119 % of control | dose: 125.0 micrograms/kg/injection, schedule: Q01DX009 (ip), vehicle: saline 100 % of control | dose: 250.0 micrograms/kg/injection, schedule: Q01DX009 (ip), vehicle: saline 113 % of control | dose: 500.0 micrograms/kg/injection, schedule: Q01DX009 (ip), vehicle: saline 105 % of control | dose: 1000.0 micrograms/kg/injection, schedule: Q01DX009 (ip), vehicle: saline 110 % of control

CSc1ccc(OCC2CO2)cc1C (stereo not given)
inactive: dose: 100.0 mg/kg/injection, schedule: Q04DX002 (ip), vehicle: saline 96 % of control | dose: 200.0 mg/kg/injection, schedule: Q04DX002 (ip), vehicle: saline 111 % of control | dose: 400.0 mg/kg/injection, schedule: Q04DX002 (ip), vehicle: saline 104 % of control

O=[N+]([O-])c1cc(Cl)cc2c1nc(Cl)c1ccccc12
inactive: [1] 94 % of control | [2] 100 % of control | [3] 91 % of control | [4] 98 % of control | [5] 91 % of control | [6] 100 % of control

CCOC(=O)NC(=S)[S][Sb]([S]C(=S)NC(=O)OCC)[S]C(=S)Nc1ccc(S(=O)(=O)Nc2ccc(N=Nc3ccccc3)cc2)cc1
inactive: dose: 100.0 mg/kg/injection, schedule: Q01DX001 (ip), vehicle: steriod suspending solution 103 % of control | dose: 400.0 mg/kg/injection, schedule: Q01DX001 (ip), vehicle: steriod suspending solution 106 % of control

Fc1cc(N(CCCl)CCCl)ccc1C=NCCCN=Cc1ccc(N(CCCl)CCCl)cc1F
inactive: dose: 100.0 mg/kg/injection, schedule: Q01DX001 (ip), vehicle: carboxymethylcellulose (CMC) 95 % of control | dose: 200.0 mg/kg/injection, schedule: Q01DX001 (ip), vehicle: carboxymethylcellulose (CMC) 95 % of control | dose: 400.0 mg/kg/injection, schedule: Q01DX001 (ip), vehicle: carboxymethylcellulose (CMC) 111 % of control

COCCOCC(=O)O
inactive: dose: 100.0 mg/kg/injection, schedule: Q04DX002 (ip), vehicle: saline with Tween-80 101 % of control | dose: 200.0 mg/kg/injection, schedule: Q04DX002 (ip), vehicle: saline with Tween-80 96 % of control | dose: 400.0 mg/kg/injection, schedule: Q04DX002 (ip), vehicle: saline with Tween-80 108 % of control

CC(O)C(NC(=O)OCc1ccccc1)C(=O)NC(CO)C(=O)NN (stereo not drawn) (Cbz-Thr-Ser-NHNH2; configuration not given here)
inactive: dose: 5.0 mg/kg/injection, schedule: Q01DX001 (ip), vehicle: saline 103 % of control | dose: 10.0 mg/kg/injection, schedule: Q01DX001 (ip), vehicle: saline 103 % of control | dose: 20.0 mg/kg/injection, schedule: Q01DX001 (ip), vehicle: saline 103 % of control | dose: 40.0 mg/kg/injection, schedule: Q01DX001 (ip), vehicle: saline 105 % of control | dose: 80.0 mg/kg/injection, schedule: Q01DX001 (ip), vehicle: saline 97 % of control | [7] 103 % of control and 98 % of control | [8] 95 % of control

S=C(Cc1ccccc1)N1CCCCC1
inactive: [1] 108 % of control | [2] 100 % of control | [3] 98 % of control | [4] 101 % of control | [5] 95 % of control

O=c1ccc2nc3ccccc3sc-2c1
inactive: [9] 89 % of control

O=C(O)CSCc1cc(=O)[nH]c(=O)[nH]1
inactive: dose: 100.0 mg/kg/injection, schedule: Q04DX003 (ip), vehicle: saline 96 % of control | dose: 200.0 mg/kg/injection, schedule: Q04DX003 (ip), vehicle: saline 96 % of control | dose: 400.0 mg/kg/injection, schedule: Q04DX003 (ip), vehicle: saline 98 % of control

Cc1cc(Cl)c(=O)n(-c2ccc(Cl)cc2)n1
inactive: dose: 50.0 mg/kg/injection, schedule: Q04DX003 (ip), vehicle: saline with Tween-80 109 % of control | [9] 103 % of control | dose: 200.0 mg/kg/injection, schedule: Q04DX003 (ip), vehicle: saline with Tween-80 98 % of control

OC(/C(=C(/c1ccccc1)c1ccc(Cl)cc1)c1ccccc1)(c1ccccc1)c1ccccc1
inactive: dose: 100.0 mg/kg/injection, schedule: Q01DX009 (ip), vehicle: saline with Tween-80 98 % of control | dose: 200.0 mg/kg/injection, schedule: Q01DX009 (ip), vehicle: saline with Tween-80 95 % of control | dose: 400.0 mg/kg/injection, schedule: Q01DX009 (ip), vehicle: saline with Tween-80 98 % of control

ClCCC[Si](Cl)(Cl)Cl
inactive: dose: 75.0 mg/kg/injection, schedule: Q01DX001 (ip), vehicle: saline 109 % of control | dose: 150.0 mg/kg/injection, schedule: Q01DX001 (ip), vehicle: saline 107 % of control | dose: 300.0 mg/kg/injection, schedule: Q01DX001 (ip), vehicle: saline 100 % of control

Nc1ncnc(N)c1NC(=O)c1ccc(C(=O)c2cccc([N+](=O)[O-])c2)cc1
inactive: dose: 100.0 mg/kg/injection, schedule: Q01DX001 (ip), vehicle: gum acacia 97 % of control | dose: 200.0 mg/kg/injection, schedule: Q01DX001 (ip), vehicle: gum acacia 100 % of control | dose: 400.0 mg/kg/injection, schedule: Q01DX001 (ip), vehicle: gum acacia 93 % of control

CCCP(CCC)c1ccccc1
inactive: dose: 100.0 mg/kg/injection, schedule: Q01DX009 (sc), vehicle: olive oil, sesame oil, peanut oil 96 % of control | dose: 100.0 mg/kg/injection, schedule: Q04DX003 (sc), vehicle: olive oil, sesame oil, peanut oil 93 % of control | dose: 200.0 mg/kg/injection, schedule: Q01DX009 (sc), vehicle: olive oil, sesame oil, peanut oil 113 % of control | dose: 200.0 mg/kg/injection, schedule: Q04DX003 (sc), vehicle: olive oil, sesame oil, peanut oil 95 % of control | dose: 400.0 mg/kg/injection, schedule: Q01DX009 (sc), vehicle: olive oil, sesame oil, peanut oil 100 % of control | dose: 400.0 mg/kg/injection, schedule: Q04DX003 (sc), vehicle: olive oil, sesame oil, peanut oil 91 % of control

Oc1ccccc1C=Nc1ccc(Cc2ccc(N=Cc3ccccc3O)cc2)cc1
inactive: [7] 96 % of control | dose: 150.0 mg/kg/injection, schedule: Q04DX003 (ip), vehicle: other 104 % of control | [8] 90 % of control | dose: 300.0 mg/kg/injection, schedule: Q04DX003 (ip), vehicle: other 86 % of control | dose: 400.0 mg/kg/injection, schedule: Q01DX001 (ip), vehicle: saline 90 % of control

CCCCCCCCCCOC(=O)N1C(=O)NC(=O)C1c1ccccc1 (stereo not given)
inactive: [1] 104 % of control | [2] 103 % of control | [3] 104 % of control | [4] 97 % of control | [5] 96 % of control | [6] 93 % of control

Cc1nn(C)c2ccc([N+](=O)[O-])cc12
inactive: [1] 91 % of control | [3] 102 % of control | [4] 97 % of control | [5] 96 % of control | [6] 98 % of control
